In ChEMBL document CHEMBL1201862, “PubChem BioAssay data set” (2004):
Calls of active or inactive are those of the source.

Assays:
[1] = biological target: Mu-type opioid receptor (Homo sapiens, UniProt P35372); format: functional, cell-based;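 further: U2OS cells with beta-arrestin recruitment to OPRM1 by beta-gal complementation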
[2] = biological target: 5-hydroxytryptamine receptor 2A (Mus musculus, UniProt P35363); format: functional, cell-based;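 further: CHO-K1 cells with tagged receptor and beta-arrestin; agonist potency measured as compound-induced activation of the receptor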
Sequence of 5-hydroxytryptamine receptor 2A (P35363 whole entry): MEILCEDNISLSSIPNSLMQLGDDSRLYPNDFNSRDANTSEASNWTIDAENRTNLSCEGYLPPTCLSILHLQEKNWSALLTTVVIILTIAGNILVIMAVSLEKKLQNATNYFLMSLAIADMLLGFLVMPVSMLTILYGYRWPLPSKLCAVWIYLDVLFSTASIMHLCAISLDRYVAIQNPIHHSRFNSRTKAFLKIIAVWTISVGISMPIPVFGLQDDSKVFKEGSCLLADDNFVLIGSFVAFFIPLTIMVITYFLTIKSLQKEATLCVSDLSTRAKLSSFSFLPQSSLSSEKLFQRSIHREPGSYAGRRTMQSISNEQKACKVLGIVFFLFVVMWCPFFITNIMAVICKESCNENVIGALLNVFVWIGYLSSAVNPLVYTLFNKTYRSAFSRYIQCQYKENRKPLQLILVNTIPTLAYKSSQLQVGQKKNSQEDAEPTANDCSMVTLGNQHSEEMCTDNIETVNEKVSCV

[3] = biological target: Galanin receptor type 3 (Homo sapiens, UniProt O60755); assay: Fluorescence-based cell-based primary high throughput dose response assay to identify antagonists of the Galanin Receptor 3 (GalR3).; format: functional
Sequence of Galanin receptor type 3 (O60755 whole entry): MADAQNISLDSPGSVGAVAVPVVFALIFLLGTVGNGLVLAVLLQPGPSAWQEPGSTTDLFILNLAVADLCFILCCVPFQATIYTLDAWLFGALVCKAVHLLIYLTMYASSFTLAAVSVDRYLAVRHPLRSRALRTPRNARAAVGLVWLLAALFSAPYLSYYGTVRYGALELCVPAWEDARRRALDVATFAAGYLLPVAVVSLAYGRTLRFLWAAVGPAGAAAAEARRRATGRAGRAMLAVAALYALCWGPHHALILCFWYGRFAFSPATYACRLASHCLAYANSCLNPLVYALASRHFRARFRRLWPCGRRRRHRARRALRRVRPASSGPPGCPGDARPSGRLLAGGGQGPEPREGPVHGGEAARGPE

[4] = cells; format: functional, cell-based; conditions: HEK-CNG
[5] = biological target: T1, Tyrosine-protein phosphatase non-receptor type 5 (Homo sapiens, UniProt P54829); assay: PTPN5 enzyme inhibition – biochemical, fluorescence intensity, uHTS hits, confirmation (AID 602372); format: functional; conditions: read-out: IC50_Mean
T1 sequence (P54829 whole entry): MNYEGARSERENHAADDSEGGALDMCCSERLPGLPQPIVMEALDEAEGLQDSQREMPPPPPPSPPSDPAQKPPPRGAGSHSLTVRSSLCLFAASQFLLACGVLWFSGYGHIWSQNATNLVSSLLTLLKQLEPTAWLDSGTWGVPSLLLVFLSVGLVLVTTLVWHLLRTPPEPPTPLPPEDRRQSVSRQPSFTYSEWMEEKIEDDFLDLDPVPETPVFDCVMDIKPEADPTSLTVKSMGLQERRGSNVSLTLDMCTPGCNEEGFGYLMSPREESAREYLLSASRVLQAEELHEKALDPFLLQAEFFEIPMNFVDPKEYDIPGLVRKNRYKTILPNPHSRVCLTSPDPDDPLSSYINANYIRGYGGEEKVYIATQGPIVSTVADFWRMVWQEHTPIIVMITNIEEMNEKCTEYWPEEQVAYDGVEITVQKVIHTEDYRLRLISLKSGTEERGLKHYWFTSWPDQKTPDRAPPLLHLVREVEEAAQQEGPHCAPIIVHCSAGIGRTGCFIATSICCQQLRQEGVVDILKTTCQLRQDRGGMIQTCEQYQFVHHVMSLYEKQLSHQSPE

[6] = biological target: T2, Tyrosine-protein phosphatase non-receptor type 22 (Homo sapiens, UniProt Q9Y2R2); assay: lymphoid phosphatase LYP inhibitors – biochemical, selectivity assay for STEP inhibitor project, dose response (AID 624241); format: functional
T2 sequence (Q9Y2R2 whole entry): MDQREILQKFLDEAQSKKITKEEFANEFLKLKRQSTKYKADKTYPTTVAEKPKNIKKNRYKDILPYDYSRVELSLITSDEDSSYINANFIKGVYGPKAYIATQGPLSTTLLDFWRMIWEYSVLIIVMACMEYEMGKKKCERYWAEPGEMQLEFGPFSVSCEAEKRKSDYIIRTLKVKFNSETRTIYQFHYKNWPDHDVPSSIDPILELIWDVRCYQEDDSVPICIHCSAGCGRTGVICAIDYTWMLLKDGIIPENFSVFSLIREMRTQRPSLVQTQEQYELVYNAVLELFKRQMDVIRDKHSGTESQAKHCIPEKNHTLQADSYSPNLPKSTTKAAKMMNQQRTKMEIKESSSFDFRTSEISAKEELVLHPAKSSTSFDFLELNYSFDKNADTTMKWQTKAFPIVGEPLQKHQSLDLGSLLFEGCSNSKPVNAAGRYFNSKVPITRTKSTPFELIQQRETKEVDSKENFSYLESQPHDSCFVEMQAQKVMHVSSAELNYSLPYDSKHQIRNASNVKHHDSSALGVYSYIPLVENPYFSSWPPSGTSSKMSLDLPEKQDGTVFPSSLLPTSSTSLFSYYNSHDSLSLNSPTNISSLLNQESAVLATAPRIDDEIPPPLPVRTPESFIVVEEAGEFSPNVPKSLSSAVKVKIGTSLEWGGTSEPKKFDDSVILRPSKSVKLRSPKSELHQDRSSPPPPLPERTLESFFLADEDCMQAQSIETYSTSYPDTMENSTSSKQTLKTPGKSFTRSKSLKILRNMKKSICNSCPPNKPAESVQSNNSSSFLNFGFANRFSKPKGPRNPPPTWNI

[7] = biological target: T3, Small ubiquitin-related modifier 1 (Homo sapiens, UniProt P63165); assay: SUMO1 protein-protein binding blockers, potency – biochemical, FRET, dose response (AID 624383); format: functional; conditions: read-out: IC50_Mean
T3 sequence (P63165 whole entry): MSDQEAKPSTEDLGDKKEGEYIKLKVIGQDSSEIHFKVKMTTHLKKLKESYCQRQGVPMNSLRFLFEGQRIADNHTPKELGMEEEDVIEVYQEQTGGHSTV

[8] = biological target: T4, Tyrosine-protein phosphatase non-receptor type 11 (Homo sapiens, UniProt Q06124); assay: PTPN11 enzyme inhibitors – biochemical, selectivity assay for STEP inhibitor project, dose response (AID 602367); format: functional; conditions: read-out: IC50_Mean
T4 sequence (Q06124 whole entry): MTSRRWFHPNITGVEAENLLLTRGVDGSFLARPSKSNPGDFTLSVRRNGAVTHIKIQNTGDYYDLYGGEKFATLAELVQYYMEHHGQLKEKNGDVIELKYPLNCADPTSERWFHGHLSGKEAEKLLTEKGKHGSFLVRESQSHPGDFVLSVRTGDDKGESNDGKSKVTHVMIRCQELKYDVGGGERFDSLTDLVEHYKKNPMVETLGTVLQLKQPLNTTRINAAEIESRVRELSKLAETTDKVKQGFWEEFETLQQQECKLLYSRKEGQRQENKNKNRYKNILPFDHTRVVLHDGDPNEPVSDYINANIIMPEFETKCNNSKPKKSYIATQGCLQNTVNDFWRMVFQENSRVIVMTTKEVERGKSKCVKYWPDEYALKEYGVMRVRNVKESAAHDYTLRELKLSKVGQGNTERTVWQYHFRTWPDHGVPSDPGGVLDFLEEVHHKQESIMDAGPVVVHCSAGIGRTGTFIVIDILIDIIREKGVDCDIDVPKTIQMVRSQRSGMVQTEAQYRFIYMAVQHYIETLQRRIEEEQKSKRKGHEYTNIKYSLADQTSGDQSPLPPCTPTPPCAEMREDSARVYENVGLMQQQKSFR

[9] = biological target: T5, Low molecular weight phosphotyrosine protein phosphatase (Homo sapiens, UniProt P24666); format: functional; conditions: read-out: IC50_Mean
T5 sequence (P24666 whole entry): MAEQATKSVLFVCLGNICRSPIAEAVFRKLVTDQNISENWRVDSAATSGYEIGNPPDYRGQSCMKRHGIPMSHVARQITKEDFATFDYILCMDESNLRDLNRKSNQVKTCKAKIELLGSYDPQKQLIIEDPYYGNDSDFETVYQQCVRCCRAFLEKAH

[10] = biological target: Dual specificity protein phosphatase 3 (Homo sapiens, UniProt P51452); assay: VHR phosphatase inhibition, dose response, selectivity assay for STEP inhibitor project, biochemical (AID 602374); format: functional; conditions: read-out: IC50_Mean
Sequence of Dual specificity protein phosphatase 3 (P51452 whole entry): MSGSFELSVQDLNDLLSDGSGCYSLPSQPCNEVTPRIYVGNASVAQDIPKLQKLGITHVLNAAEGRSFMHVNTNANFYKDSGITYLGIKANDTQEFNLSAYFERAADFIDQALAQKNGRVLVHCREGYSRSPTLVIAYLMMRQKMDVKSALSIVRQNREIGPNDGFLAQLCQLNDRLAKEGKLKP

[11] = biological target: T6, SUMO-activating enzyme (Homo sapiens, UniProt Q9UBT2); assay: blockers of SAE1/SAE2–UBC9 SUMO transfer – biochemical, HTRF, uHTS, primary screen (AID 2006); format: protein-complex assay
T6 sequence (Q9UBE0 whole entry): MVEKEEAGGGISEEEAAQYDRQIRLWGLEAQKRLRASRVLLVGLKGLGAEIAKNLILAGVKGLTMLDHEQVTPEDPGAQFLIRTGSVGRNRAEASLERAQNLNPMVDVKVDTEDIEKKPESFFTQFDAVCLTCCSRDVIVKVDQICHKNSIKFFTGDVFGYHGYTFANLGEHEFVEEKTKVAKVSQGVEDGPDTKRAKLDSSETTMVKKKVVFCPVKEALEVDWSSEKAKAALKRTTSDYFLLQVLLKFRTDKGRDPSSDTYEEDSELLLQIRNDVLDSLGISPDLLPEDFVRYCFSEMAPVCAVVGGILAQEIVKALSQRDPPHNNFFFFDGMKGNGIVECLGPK
T6 sequence (Q9UBT2 whole entry): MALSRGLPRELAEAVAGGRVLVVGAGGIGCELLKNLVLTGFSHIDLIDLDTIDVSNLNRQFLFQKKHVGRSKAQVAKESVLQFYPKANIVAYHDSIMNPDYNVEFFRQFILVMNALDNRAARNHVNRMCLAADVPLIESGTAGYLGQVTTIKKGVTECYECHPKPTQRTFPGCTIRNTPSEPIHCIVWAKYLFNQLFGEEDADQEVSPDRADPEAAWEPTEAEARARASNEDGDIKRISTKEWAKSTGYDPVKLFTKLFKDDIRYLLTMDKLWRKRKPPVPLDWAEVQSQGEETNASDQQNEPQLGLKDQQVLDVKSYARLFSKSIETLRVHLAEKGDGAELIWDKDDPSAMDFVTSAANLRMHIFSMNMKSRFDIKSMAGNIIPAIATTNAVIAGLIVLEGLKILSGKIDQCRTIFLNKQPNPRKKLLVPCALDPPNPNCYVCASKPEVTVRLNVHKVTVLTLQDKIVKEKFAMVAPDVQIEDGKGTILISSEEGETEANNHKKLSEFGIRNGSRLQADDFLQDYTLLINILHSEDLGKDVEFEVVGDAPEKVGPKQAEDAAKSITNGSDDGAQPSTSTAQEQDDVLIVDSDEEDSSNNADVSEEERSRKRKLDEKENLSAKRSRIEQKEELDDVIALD

[12] = biological target: T3, Small ubiquitin-related modifier 1; assay: SUMO1 protein interaction blockers, potency – biochemical, fluorescence polarization, uHTS hits, dose response (AID 624382); format: functional; conditions: read-out: IC50_Mean
[13] = biological target: T7, Carboxy-terminal domain RNA polymerase II polypeptide A small phosphatase 1 (Homo sapiens, UniProt Q9GZU7); assay: CTDSP1 inhibitors, concentration-response, biochemical, absorbance readout, ultra-high-throughput screen actives (AID 540297); format: functional
T7 sequence (Q9GZU7 whole entry): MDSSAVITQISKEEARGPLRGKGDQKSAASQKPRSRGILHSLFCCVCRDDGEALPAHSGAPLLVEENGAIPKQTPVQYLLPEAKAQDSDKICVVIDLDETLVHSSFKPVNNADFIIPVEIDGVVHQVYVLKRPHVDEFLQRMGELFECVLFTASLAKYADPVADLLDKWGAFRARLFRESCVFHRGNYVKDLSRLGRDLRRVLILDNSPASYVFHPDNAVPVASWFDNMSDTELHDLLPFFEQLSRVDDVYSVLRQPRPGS

[14] = biological target: T6, SUMO-activating enzyme; assay: blockers of UBC9-mediated SUMO conjugation – biochemical, AlphaScreen, SUMOylation inhibitor project, confirmation (AID 2018); format: functional
[15] = cells; format: functional, cell-based
[16] = biological target: T5, Low molecular weight phosphotyrosine protein phosphatase; format: functional; conditions: read-out: IC50_Mean; remark: listed apart in the source
[17] = biological target: Nuclear receptor subfamily 0 group B member 1 (Homo sapiens, UniProt P51843); format: functional, cell-based;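 further: HEK293T cells transfected with SF-1 and DAX-1 plus StAR promoter luciferase reporter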
Sequence of Nuclear receptor subfamily 0 group B member 1 (P51843 whole entry): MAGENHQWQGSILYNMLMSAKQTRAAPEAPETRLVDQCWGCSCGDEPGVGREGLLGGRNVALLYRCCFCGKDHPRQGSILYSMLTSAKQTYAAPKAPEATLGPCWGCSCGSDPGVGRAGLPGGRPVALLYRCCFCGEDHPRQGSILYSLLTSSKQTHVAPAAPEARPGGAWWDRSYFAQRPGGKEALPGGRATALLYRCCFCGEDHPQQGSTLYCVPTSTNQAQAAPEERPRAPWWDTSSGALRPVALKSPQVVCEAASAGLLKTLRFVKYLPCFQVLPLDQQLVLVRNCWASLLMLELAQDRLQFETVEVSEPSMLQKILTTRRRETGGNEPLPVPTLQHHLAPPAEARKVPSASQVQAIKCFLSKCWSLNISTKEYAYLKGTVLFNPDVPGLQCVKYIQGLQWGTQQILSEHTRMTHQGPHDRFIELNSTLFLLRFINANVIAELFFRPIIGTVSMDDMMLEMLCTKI

[18] = Luminescence Cell-Based Dose Retest to Confirm Inhibitors of Cancer Stem Cells. [Related pubchem assays (depositor defined):AID2717, AID2721]; format: functional; conditions: Homo sapiens
[19] = inhibition of ADAM10 peptide cleavage – biochemical, FRET peptide substrate, recombinant human ADAM10, selectivity assay for ADAM17 exosite inhibitor project, dose response (AID 743259);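 further: ADAM10 enzyme cleaving a FRET peptide substrate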
[20] = biological target: Heat shock protein HSP 90-alpha (Homo sapiens, UniProt P07900); format: functional, organism-based
[21] = biological target: Disintegrin and metalloproteinase domain-containing protein 17 (Homo sapiens, UniProt P78536); assay: exosite inhibitors of ADAM17, dose response, biochemical (AID 743260)
Sequence of Disintegrin and metalloproteinase domain-containing protein 17 (P78536 whole entry, the tested form may be a part): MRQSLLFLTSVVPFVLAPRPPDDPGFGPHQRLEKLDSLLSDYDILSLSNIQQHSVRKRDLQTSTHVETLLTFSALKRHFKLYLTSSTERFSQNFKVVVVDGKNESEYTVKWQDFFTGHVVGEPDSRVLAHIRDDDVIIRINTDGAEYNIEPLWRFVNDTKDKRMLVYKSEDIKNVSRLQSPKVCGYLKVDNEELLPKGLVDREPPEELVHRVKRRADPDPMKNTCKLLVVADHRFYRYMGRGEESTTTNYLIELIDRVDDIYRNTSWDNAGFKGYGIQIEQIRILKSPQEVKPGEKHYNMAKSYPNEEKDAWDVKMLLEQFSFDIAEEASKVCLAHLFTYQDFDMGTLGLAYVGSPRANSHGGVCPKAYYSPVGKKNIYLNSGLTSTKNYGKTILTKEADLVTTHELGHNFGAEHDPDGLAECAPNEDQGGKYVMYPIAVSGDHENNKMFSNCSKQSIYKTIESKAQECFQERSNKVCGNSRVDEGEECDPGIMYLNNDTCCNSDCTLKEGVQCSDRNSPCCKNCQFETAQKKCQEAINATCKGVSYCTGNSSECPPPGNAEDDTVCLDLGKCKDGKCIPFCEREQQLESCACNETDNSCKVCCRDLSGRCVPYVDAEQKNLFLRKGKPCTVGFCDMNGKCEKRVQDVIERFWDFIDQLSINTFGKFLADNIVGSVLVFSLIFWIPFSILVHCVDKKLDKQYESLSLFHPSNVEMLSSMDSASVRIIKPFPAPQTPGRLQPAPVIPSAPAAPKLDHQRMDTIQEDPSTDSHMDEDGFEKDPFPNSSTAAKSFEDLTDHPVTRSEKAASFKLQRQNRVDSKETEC

[22] = biological target: Lethal factor (Bacillus anthracis, UniProt P15917); assay: High-throughput multiplex microsphere dose response for inhibitors of toxin protease, specifically Lethal Factor protease, compounds from Cherry Pick 02.; format: functional; conditions: read-out: EC50_MICROM
[23] = biological target: Botulinum neurotoxin type F (Clostridium botulinum, UniProt P30996); assay: High-throughput multiplex microsphere dose response for inhibitors of toxin protease, specifically Botulinum neurotoxin light chain F protease, compounds from Cherry Pick 02.; format: functional; conditions: read-out: EC50_MICROM
Sequence of Botulinum neurotoxin type F (P30996 1-436 limits assumed): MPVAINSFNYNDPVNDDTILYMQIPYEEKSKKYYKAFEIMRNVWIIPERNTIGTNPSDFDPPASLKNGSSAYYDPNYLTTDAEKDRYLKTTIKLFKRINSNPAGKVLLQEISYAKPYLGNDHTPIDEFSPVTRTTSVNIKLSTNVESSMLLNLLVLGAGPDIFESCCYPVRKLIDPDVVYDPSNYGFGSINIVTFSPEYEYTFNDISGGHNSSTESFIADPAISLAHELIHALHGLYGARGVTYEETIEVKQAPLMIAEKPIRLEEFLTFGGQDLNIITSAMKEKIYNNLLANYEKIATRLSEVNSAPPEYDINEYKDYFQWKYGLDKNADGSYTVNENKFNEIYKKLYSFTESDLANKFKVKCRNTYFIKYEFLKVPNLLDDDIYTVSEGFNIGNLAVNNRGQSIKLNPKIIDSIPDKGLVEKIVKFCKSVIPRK

Sequence of Mu-type opioid receptor (P35372 whole entry): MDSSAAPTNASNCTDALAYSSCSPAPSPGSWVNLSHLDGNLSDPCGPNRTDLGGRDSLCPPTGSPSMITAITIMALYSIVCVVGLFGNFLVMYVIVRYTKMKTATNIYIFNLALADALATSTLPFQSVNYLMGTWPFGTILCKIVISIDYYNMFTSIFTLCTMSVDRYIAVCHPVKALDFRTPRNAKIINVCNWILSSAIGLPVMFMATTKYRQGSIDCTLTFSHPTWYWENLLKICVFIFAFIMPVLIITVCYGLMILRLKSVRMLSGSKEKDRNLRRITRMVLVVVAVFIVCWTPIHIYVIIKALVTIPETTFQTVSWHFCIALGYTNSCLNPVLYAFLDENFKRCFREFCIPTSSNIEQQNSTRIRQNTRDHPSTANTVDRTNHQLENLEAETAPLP

Q: Which results are given for O=C(c1ccco1)N1CCN(Cc2ccc(Br)cc2)CC1?
A: EC50 [1]: 92.4 µM (inactive); EC50 [2]: 2.24 µM (active)

Q: Which IC50 [3] does the source give for COC(=O)CSc1nc(N)c(C#N)c(-c2ccc(O)cc2)c1C#N here?
A: Its IC50 is > 29.9 µM (inactive).

Q: What about the EC50 [4] of the same compound?
A: The EC50 was > 29.9 µM (inactive).

Q: Which results are given for Cc1c(CC(=O)O)c(=O)oc2c(C)c(OCc3ccc(F)cc3Cl)ccc12?
A: IC50 [5]: 5.58 µM (active); IC50 [6]: 12.7 µM (active); IC50 [7]: 15.7 µM (active); IC50 [8]: 2.48 µM (active); IC50 [9]: 11.5 µM (active); IC50 [10]: 3.68 µM (active); IC50 [11]: 12.5 µM (active); IC50 [12]: > 66.6 µM (inactive); IC50 [13]: 2.17 µM (active); IC50 [14]: > 100 µM (inactive)

Q: For CC(Nc1nc(-c2ccccc2)nc2ccccc12)c1ccccc1 (centres undefined), which IC50 [15] is on record?
A: Its IC50 is > 67.5 µM (inactive).

Q: And the IC50 [16]?
A: Its IC50 is > 80 µM (inactive).

Q: What about the IC50 [9] of the same compound?
A: Its IC50 is 23.1 µM (inactive).

Q: What about the IC50 [17] of the same compound?
A: The IC50 was > 67.5 µM (inactive).

Q: What about the AC50 [18] of the same compound?
A: The AC50 was 4.43 µM (active).

Q: Which results are given for OCCCn1c(C2CCCN2c2nc(-c3ccc(F)cc3)cs2)nc2cc(Cl)c(Cl)cc21 (centres undefined)?
A: IC50 [19]: > 69.5 µM (inactive); AC50 [20]: 5.05 µM (active); IC50 [21]: > 69.5 µM (inactive)

Q: What does the source list for CCCCCCCCC(c1nc2cc(C)c(C)cc2[nH]1)n1c(=O)c(-c2ccccc2Br)nc2ccccc21 (centres undefined)?
A: EC50 [22]: 17.9 µM (active); EC50 [23]: > 20 µM (inactive)
